For test [1], the target named is T1, QsAMT1.2-like (QsAMT1.2) (Quercus suber, UniProt Z9N9G6J3T1).
T1 construct: full-length cDNA from ectomycorrhizal cork oak roots in pDR196, expressed in yeast strain 31019b (mep1 mep2 mep3 deleted)
T1 sequence (Z9N9G6J3T1 1-510): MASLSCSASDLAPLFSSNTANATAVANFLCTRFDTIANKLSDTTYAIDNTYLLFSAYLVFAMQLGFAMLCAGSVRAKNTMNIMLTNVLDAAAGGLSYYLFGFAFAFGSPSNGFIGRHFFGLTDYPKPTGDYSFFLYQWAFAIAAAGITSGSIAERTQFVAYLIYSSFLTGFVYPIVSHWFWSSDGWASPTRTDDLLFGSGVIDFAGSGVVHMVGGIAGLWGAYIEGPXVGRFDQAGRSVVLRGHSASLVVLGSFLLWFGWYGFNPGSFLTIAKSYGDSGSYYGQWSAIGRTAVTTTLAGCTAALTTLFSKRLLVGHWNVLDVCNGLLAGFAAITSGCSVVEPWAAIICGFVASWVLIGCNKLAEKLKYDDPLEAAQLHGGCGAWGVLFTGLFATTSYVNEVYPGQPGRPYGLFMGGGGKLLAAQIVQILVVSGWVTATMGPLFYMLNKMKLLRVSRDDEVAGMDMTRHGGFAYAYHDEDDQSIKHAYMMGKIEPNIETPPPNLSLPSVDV
Kind of test: […]-methylammonium uptake in transformed yeast, Michaelis-Menten and Lineweaver-Burk. Type of test: cell-based. The following applies: labelled compound; yeast 31019b; substrate of the Km taken from the methods; read-out: apparent Km.

For test [2], the target named is T2, QsAMT3.2-like (QsAMT3.2) (Quercus suber, UniProt Z9KUH6IWZ3).
T2 construct: full-length cDNA from ectomycorrhizal cork oak roots in pDR196, expressed in yeast strain 31019b (mep1 mep2 mep3 deleted)
T2 sequence (Z9KUH6IWZ3 1-486): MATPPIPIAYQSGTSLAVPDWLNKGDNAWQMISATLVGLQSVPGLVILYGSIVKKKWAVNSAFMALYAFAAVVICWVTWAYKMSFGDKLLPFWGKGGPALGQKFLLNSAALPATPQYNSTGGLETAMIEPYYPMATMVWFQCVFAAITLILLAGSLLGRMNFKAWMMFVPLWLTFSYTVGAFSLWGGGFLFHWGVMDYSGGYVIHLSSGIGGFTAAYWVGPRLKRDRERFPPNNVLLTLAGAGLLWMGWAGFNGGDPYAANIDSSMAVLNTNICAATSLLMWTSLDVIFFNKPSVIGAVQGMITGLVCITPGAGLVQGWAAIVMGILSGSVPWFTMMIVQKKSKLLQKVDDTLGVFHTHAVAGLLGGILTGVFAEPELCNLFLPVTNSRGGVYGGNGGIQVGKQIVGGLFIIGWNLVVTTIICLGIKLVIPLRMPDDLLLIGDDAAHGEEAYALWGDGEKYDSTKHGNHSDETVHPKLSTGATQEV
Described as above. It counts as cell-based. As to conditions: labelled compound; yeast 31019b; substrate of the Km taken from the methods; read-out: apparent Km.

One may read the Km as the substrate concentration at which the rate is half of its maximum.

For `CN` [[14C]-methylammonium], the Km amounted to 667 µM in test [1] and 0.6 µM in test [2].

The values above are taken from paper PMC9823632, “Nitrogen Acquisition and Transport in the Ectomycorrhizal Symbiosis—Insights from the Interaction between an Oak Tree and Pisolithus tinctorius” (Plants, 2022).
